The target in the assay is Neuropilin-1 (Homo sapiens) (UniProt O14786). The assay is described as follows: blockers of CendR peptide binding to NRP-1 – biochemical, FP and AlphaScreen panel, dose response (AID 651650). To be noted: NRP-1 b1b2 / RPARPAR peptide binding, FP or AlphaScreen. On the technique in general: In Alpha technology, singlet oxygen from a donor bead excites a nearby acceptor bead.

Setting [1] is: AlphaScreen, run 1, individual panel run IC50.
Setting [2] is: FP, run 1, individual panel run IC50.
[3] abbreviates: FP, run 2, individual panel run IC50.

SMILES strings stand for the structures. The source made the active and inactive calls.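 How the source made its calls: active means mean IC50 below 20 µM in each of the two panels, so potent in both; inactive means the rest.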

By IC50 is commonly meant the concentration that gives 50% inhibition.

Chain of Neuropilin-1 (Homo sapiens) (O14786 whole entry, looked up): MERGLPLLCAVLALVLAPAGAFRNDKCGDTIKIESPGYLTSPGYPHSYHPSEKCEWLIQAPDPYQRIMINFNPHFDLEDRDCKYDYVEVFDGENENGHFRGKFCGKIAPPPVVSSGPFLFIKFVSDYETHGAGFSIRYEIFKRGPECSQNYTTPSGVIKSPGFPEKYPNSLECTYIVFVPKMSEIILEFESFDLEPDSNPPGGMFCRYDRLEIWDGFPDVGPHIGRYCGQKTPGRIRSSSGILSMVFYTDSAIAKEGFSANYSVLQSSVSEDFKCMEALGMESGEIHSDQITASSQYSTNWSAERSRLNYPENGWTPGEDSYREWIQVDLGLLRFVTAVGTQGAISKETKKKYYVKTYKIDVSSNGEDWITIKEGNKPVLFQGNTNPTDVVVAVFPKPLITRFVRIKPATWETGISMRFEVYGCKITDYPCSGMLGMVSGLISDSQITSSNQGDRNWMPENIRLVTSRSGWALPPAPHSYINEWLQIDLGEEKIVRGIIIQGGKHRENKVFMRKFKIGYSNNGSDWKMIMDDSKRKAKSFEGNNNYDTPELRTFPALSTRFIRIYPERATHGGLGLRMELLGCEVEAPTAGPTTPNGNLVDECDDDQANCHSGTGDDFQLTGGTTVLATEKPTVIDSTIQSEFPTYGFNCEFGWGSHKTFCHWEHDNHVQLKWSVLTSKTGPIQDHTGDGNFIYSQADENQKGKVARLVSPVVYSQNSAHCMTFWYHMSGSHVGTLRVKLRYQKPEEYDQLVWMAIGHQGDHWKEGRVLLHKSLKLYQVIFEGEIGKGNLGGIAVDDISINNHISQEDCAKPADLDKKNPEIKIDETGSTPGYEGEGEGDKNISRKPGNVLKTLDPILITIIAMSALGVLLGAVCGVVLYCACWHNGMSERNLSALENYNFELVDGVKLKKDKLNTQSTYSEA

`CC(=O)Nc1cccc(-c2csc(NCc3ccccc3)n2)c1`: the IC50 (AlphaScreen, mean of runs) was > 100 µM (inactive); the IC50 under setting [1] is more than 100 µM; the IC50 (FP, mean of runs) was > 95 µM (inactive); the IC50 under setting [2] is more than 95 µM; the IC50 under setting [3] was more than 95 µM.
For the molecule `CCOC(=O)c1ccc2[nH]c(C)c(C)c2c1`, the IC50 reads like this: (AlphaScreen, mean of runs) > 100 µM (inactive); under setting [1], more than 100 µM; (FP, mean of runs) > 95 µM (inactive); under setting [2], more than 95 µM; under setting [3], more than 95 µM.
On to `CCN(Cc1ccncc1)C(=O)c1cc(COc2ccc(F)cc2F)on1`, for which the IC50 is, setting by setting: (AlphaScreen, mean of runs) > 100 µM (inactive); under setting [1], more than 100 µM; (FP, mean of runs) > 95 µM (inactive); under setting [2], more than 95 µM; under setting [3], more than 95 µM.
Take `COc1ccc(-c2csc(NC(CO)c3nc4ccccc4n3CCCO)n2)cc1` (stereo not given): the IC50 was > 100 µM (inactive) (AlphaScreen, mean of runs); more than 100 µM under setting [1]; > 95 µM (inactive) (FP, mean of runs); more than 95 µM under setting [2]; more than 95 µM under setting [3].
Turning to `Cc1ccccc1NC(=O)c1cccc(NC(=O)CCC(=O)O)c1`, the IC50 is > 100 µM (inactive) (AlphaScreen, mean of runs); more than 100 µM under setting [1]; > 95 µM (inactive) (FP, mean of runs); more than 95 µM under setting [2]; more than 95 µM under setting [3].
Turning to `COc1cc(C(=O)Nc2cc3c(cc2N2CCCCC2)n(C)c(=O)n3C)cc(OC)c1OC`, the IC50 entry (AlphaScreen, mean of runs) was “inactive”. In addition, the IC50 is 85 µM under setting [1]; > 95 µM (inactive) (FP, mean of runs); more than 95 µM under setting [2]; more than 95 µM under setting [3].
`Cn1c(=O)c2[nH]c(NCCCN3CCOCC3)nc2n(C)c1=O`: the IC50 (AlphaScreen, mean of runs) was > 100 µM (inactive); the IC50 under setting [1] is more than 100 µM; the 50% inhibitory concentration (IC50) under setting [2] is more than 95 µM; the half-maximal inhibitory concentration (IC50) under setting [3] stood at 56.1 µM. For the same molecule, for the setting “FP, mean of runs”, the IC50 entry is “inactive”.
As to `O=C(CSc1nc2ccccc2n1Cc1ccccc1Cl)N/N=C/c1ccccc1C(=O)O`, the IC50 entry (AlphaScreen, mean of runs) is “inactive”. Besides, the IC50 under setting [1] was 39.2 µM; the IC50 (FP, mean of runs) was > 95 µM (inactive); the IC50 under setting [2] was more than 95 µM; the concentration for half-maximal inhibition (IC50) under setting [3] was more than 95 µM.
Consider `O=C(Cn1ccc(NC(=O)OCc2ccccc2)nc1=O)NCCCn1ccnc1`, for which the IC50 reads like this: (AlphaScreen, mean of runs) > 100 µM (inactive); under setting [1], more than 100 µM; (FP, mean of runs) > 95 µM (inactive); under setting [2], more than 95 µM; under setting [3], more than 95 µM.
With `COc1ccc(-c2cc(C)no2)cc1S(=O)(=O)NCc1cccc(C)c1`, the IC50 (AlphaScreen, mean of runs) is > 100 µM (inactive); the IC50 under setting [1] is more than 100 µM; the IC50 (FP, mean of runs) was > 95 µM (inactive); the IC50 under setting [2] is more than 95 µM; the 50% inhibitory concentration (IC50) under setting [3] was more than 95 µM.
On to `O=Cc1ccc(-c2ccccc2C(=O)O)o1`, for which the IC50 by setting is: (AlphaScreen, mean of runs) > 100 µM (inactive); under setting [1], more than 100 µM; (FP, mean of runs) > 95 µM (inactive); under setting [2], more than 95 µM; under setting [3], more than 95 µM.
Turning to `Cc1cnccc1CNC(=O)CC1C(=O)NCCN1CC(C)(C)C` (stereo not given), the IC50 reads like this: (AlphaScreen, mean of runs) > 100 µM (inactive); under setting [1], more than 100 µM; (FP, mean of runs) > 95 µM (inactive); under setting [2], more than 95 µM; under setting [3], more than 95 µM.
As to `Cc1cc(C)cc(N(CCC(=O)O)S(=O)(=O)c2ccc3ccccc3c2)c1`, the IC50 by setting is: (AlphaScreen, mean of runs) > 100 µM (inactive); under setting [1], more than 100 µM; (FP, mean of runs) > 95 µM (inactive); under setting [2], more than 95 µM; under setting [3], more than 95 µM.
As for `Oc1ccc(-c2nc3ncccn3c2Nc2ccc3c(c2)OCO3)cc1`, the IC50 by setting is: (AlphaScreen, mean of runs) > 100 µM (inactive); under setting [1], more than 100 µM; (FP, mean of runs) > 95 µM (inactive); under setting [2], more than 95 µM; under setting [3], more than 95 µM.
